For orientation: IC50 means the point on the concentration scale where inhibition reaches its midpoint. The low end stands for greater potency, the high end for weaker potency.

Common to all, as to assay type: cell-based
Assay [1] deals with T1, human transporter OCT2 (Homo sapiens, UniProt O15244).
T1 construct: expressed in transfected cells; host or cells: MDCK-II
T1 sequence (O15244 1-555): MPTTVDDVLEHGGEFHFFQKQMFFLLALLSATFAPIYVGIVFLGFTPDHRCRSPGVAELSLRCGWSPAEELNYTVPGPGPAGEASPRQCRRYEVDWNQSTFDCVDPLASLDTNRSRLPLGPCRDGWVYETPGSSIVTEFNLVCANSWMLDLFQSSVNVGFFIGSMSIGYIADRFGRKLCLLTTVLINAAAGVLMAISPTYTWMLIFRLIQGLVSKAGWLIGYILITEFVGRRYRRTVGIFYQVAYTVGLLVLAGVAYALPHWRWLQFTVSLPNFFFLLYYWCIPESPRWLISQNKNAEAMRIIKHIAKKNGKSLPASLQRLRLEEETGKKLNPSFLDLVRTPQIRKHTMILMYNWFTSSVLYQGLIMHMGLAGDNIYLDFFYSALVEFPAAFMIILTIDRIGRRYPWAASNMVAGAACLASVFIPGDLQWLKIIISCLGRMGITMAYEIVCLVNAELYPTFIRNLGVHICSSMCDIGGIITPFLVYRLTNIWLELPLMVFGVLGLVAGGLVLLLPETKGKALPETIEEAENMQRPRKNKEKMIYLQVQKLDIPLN
Briefly: In vitro ion transport assay 1, OCT2. Conditions: probe substrate 10 μM [14C]-metformin. How it is done:
(§1) Compound 1 was studied in the concentration range of 0.1-100 μM for its potency against transport mediated by various transporter proteins. [table]

For assay [2], the target named is T2, P-gp (MDR1) (Homo sapiens, UniProt P08183).
T2 construct: expressed in transfected cells
Description: In vitro ion transport assay 1, P-gp. Conditions: probe substrate 100 nM [3H]-quinidine. On the procedure:
as §1

For assay [3], the target named is T3, human transporter URAT1 (Homo sapiens, UniProt Q96S37).
T3 construct: expressed in transfected cells; host or cells: MDCK-II
T3 sequence (Q96S37 1-553): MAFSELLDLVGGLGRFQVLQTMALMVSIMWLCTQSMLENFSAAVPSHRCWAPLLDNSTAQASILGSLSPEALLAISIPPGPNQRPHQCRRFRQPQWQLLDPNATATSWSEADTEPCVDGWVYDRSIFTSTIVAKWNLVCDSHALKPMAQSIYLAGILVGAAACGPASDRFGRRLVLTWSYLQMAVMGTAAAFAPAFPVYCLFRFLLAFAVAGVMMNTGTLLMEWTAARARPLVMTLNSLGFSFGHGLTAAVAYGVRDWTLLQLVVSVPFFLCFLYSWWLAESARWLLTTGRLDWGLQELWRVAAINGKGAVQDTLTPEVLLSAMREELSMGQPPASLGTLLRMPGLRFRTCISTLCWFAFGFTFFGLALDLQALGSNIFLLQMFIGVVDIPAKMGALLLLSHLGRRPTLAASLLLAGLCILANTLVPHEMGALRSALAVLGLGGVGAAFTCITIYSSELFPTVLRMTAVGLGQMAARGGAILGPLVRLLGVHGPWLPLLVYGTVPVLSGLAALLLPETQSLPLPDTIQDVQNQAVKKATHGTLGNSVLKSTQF
Description: In vitro transport assay 2, URAT1. Conditions: 20 μM [14C]-uric acid. How it is done:
Compound 1 was studied in the concentration range of 0.1-10 μM for its potency against transport mediated by various transporter proteins.

In assay [4] the target is T4, human transporter OAT1 (Homo sapiens, UniProt Q4U2R8).
T4 construct: expressed in transfected cells; host or cells: MDCK-II
T4 sequence (Q4U2R8 1-563): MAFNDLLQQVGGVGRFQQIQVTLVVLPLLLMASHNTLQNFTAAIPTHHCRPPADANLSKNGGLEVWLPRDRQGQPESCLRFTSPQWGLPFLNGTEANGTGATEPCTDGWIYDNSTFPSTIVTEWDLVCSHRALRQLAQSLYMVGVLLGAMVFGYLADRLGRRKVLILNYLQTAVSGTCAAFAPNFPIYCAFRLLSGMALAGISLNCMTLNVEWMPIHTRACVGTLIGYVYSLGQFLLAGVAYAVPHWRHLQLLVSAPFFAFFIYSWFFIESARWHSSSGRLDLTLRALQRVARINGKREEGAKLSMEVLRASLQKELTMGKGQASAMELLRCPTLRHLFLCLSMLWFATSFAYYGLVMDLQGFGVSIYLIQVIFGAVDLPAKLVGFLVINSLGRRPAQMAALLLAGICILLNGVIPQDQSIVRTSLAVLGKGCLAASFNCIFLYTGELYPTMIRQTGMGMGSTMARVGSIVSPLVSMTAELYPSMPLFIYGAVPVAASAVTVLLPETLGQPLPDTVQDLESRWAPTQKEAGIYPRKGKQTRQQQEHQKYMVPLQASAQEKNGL
Briefly: In vitro ion transport assay 1, OAT1-mediated uptake in MDCK-II cells. Conditions: probe substrate 2 μM [3H]-p-aminohippurate. How it is done: To determine the effect of the ion transporter inhibitors on the uptake activity of solute carrier (SLC) ion transporter proteins such as OAT1 and OAT3, an ion transport assay utilizing a polarized monolayer of MDCK-II cells grown on permeable supports was used. The MDCK-II cells were treated to express the transporter of interest (e.g., OAT3 or OAT 1) or were treated with a control vector. 96-well culture plates with both donor and receiver cells containing a monolayer of MDCK-II cells were maintained at 37° C. in 5% CO2 atmosphere. Radio-labeled para-aminohippurate ([3H]-PAH) was used as a substrate for measuring OAT1 and OAT3 mediated transport, where the transport of the substrate was determined by radiometric detection. OAT1-mediated transport was assayed using 2 μM of [3H]-PAH; OAT3-mediated transport was assayed using 10 μM of [3H]-PAH. The probe substrate for OAT1 was 2 μM [3H]-p-aminohippurate. The probe substrate for OAT3 was 10 μM [3H]p-aminohippurate. The reference inhibitor for both assays was 100 μM probenecid. Following pre incubation of the transfected MDCK-II cells in HBSS, [3H]-PAH was added at the concentrations described above. Wells were then treated with either reference inhibitor probeneic acid or with the test compound. Cells transfected with empty vector served as an additional control. […]

T2 sequence (P08183 whole entry, species assumed): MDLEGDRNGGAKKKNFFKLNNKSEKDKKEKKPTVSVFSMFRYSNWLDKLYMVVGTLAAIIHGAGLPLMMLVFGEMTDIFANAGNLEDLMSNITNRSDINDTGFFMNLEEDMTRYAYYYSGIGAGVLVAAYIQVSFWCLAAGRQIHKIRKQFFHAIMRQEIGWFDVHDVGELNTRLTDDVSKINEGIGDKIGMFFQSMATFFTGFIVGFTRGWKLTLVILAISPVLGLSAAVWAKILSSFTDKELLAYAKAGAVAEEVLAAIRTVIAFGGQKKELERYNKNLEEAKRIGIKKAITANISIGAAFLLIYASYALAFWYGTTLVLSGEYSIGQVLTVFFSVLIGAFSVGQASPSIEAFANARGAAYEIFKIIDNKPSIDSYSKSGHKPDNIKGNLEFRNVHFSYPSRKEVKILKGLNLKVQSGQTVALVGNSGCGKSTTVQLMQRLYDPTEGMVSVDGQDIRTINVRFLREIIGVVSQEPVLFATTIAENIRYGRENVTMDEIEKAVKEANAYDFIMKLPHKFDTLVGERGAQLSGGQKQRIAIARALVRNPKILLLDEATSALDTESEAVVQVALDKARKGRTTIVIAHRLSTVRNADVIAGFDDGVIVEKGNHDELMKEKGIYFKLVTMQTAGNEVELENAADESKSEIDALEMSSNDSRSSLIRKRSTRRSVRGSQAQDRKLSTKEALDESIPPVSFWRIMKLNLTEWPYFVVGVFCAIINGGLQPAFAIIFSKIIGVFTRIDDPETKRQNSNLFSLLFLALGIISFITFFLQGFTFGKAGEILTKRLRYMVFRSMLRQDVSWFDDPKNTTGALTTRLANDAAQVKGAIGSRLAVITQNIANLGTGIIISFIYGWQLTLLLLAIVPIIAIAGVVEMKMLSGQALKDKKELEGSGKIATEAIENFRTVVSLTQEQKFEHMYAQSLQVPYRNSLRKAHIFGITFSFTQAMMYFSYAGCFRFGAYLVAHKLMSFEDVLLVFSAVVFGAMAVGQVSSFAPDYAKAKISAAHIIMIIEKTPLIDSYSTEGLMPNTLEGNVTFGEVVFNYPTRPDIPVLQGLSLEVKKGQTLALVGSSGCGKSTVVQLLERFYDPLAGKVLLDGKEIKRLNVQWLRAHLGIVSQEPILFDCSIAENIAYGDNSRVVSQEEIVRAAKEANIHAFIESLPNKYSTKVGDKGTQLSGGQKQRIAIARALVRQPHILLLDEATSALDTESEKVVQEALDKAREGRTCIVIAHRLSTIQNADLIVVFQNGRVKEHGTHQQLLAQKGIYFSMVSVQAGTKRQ

Regarding `O=S(=O)(c1ccc(-n2cn[nH]c2=S)cc1)c1ccc(Cl)c(C(F)(F)F)c1` [Compound 1, 4-(4-((4-chloro-3-(trifluoromethyl)phenyl)sulfonyl)phenyl)-2,4-dihydro-3H-1,2,4-triazole-3-thione], the IC50 in assay [1] was > 100 µM; in assay [2] it was 37.1 µM; in assay [3], > 10 µM; in assay [4], 12.9 µM.

(Values after patent publication US20210290597A1, “METHOD OF TREATING A CONDITION ASSOCIATED WITH NEURODEGENERATION USING INHIBITORS OF OAT3” (Neuropore Therapies, Inc., priority 2018, published 2021).)
